How the values were obtained:
[1] = system: control sera (pooled serum of ten healthy LUMC hospital workers; commercial negative donor pooled serum from the Dutch bloodbank); format: binding, human
[2] = system: antibodies in sera from SARS patients (sera 1a, 1b, 2, 6, 37, 62, London, SARS-yellow, SARS-green); format: binding, human; set-up: Binding of serum 6 to linear peptides of protein X1 of SARS-CoV Urbani / Binding of serum 37 to linear peptides of protein X1 of SARS-CoV Urbani / Binding of serum 6 to looped/cyclic peptide (PEPSCAN-ELISA) / Binding of serum 37 to looped/cyclic peptide (PEPSCAN-ELISA) / Binding of serum 37 to looped/cyclic peptides of protein X1 of SARS-CoV Urbani / Binding of serum 6 to linear peptides of protein X2 / Binding of serum 37 to linear peptides of protein X2 / Binding of serum 37 to looped/cyclic peptides of protein X2 of SARS-CoV Urbani / Binding of serum 6 to linear peptides of protein M of SARS-CoV Urbani / Binding of serum 37 to linear peptides of protein M of SARS-CoV Urbani / Binding of serum 6 to looped/cyclic peptides of protein M of SARS-CoV Urbani / Binding of serum 37 to looped/cyclic peptides of protein M of SARS-CoV Urbani / Binding of serum 6 to linear peptides of protein X3 of SARS-CoV Urbani / Binding of serum 37 to linear peptides of protein X3 of SARS-CoV Urbani / Binding of serum 37 to looped/cyclic peptides of protein X3 of SARS-CoV Urbani / Binding of serum 6 to linear peptides of protein X4 of SARS-CoV Urbani / Binding of serum 37 to linear peptides of protein X4 of SARS-CoV Urbani / Binding of serum 37 to looped/cyclic peptides of protein X4 of SARS-CoV Urbani / Binding of serum 6 to linear peptides of protein X5 of SARS-CoV Urbani / Binding of serum 37 to linear peptides of protein X5 of SARS-CoV Urbani / Binding of serum 37 to looped/cyclic peptides of protein X5 of SARS-CoV Urbani / Binding of serum 6 to linear peptides of protein N of SARS-CoV Urbani / Binding of serum 37 to linear peptides of protein N of SARS-CoV Urbani / Binding of serum 6 to linear peptide (PEPSCAN-ELISA) / Binding of serum 1a to looped/cyclic peptides of protein N of SARS-CoV Urbani / Binding of serum 1b to looped/cyclic peptides of protein N of SARS-CoV Urbani / Binding of serum 2 to looped/cyclic peptides of protein N of SARS-CoV Urbani / Binding of serum 6 to looped/cyclic peptides of protein N of SARS-CoV Urbani / Binding of serum 37 to looped/cyclic peptides of protein N of SARS-CoV Urbani / Binding of serum 62 to looped/cyclic peptides of protein N of SARS-CoV Urbani / Binding of serum London to looped/cyclic peptides of protein N of SARS-CoV Urbani / Binding of serum SARS-green to looped/cyclic peptides of protein N of SARS-CoV Urbani: unit not given here
[3] = system: rabbit serum obtained by immunizing a rabbit with the SARS-CoV strain Frankfurt 1; format: binding; set-up: Binding of a rabbit serum to linear peptides / Binding of a rabbit serum to looped peptides / Rabbit serum linear peptides / Rabbit serum looped peptides / Binding of a rabbit serum to linear peptides of protein N of SARS-CoV Urbani (Rabbit serum linear peptides) / Binding of a rabbit serum to looped/cyclic peptides of protein N of SARS-CoV Urbani (Rabbit serum looped peptides): unit not given here

GTLIVNSVLLFLAFV
0.6: Binding of serum 2 to looped/cyclic peptides of protein E of SARS-CoV Urbani [2] | Binding of a rabbit serum to linear peptides [3]
0.8: Binding of serum 1a to linear peptides of protein E of SARS-CoV Urbani [2] | Binding of serum 37 to linear peptides of protein E of SARS-CoV Urbani [2]
0.4: Binding of serum 2 to linear peptides of protein E of SARS-CoV Urbani [2] | Binding of serum 62 to looped/cyclic peptides of protein E of SARS-CoV Urbani [2] | Binding of serum London to looped/cyclic peptides of protein E of SARS-CoV Urbani [2] | Binding of serum SARS-green to linear peptides of protein E of SARS-CoV Urbani [2] | Binding of serum SARS-green to looped/cyclic peptides of protein E of SARS-CoV Urbani [2]
0.3: Binding of Control serum LUMC to looped peptides [1] | Binding of serum 6 to looped/cyclic peptides of protein E of SARS-CoV Urbani [2]
0.9: Binding of serum 6 to linear peptides of protein E of SARS-CoV Urbani [2]
0.2: Binding of serum 1a to looped/cyclic peptides of protein E of SARS-CoV Urbani [2] | Binding of serum 37 to looped/cyclic peptides of protein E of SARS-CoV Urbani [2] | Binding of serum SARS-yellow to linear peptides of protein E of SARS-CoV Urbani [2]
0.5: Binding of Control serum LUMC to linear peptides [1] | Binding of serum London to linear peptides of protein E of SARS-CoV Urbani [2]
0.7: Binding of Control Serum Blood-Bank to Looped peptides [1] | Binding of Control serum Blood-bank to linear peptides [1] | Binding of serum 1b to linear peptides of protein E of SARS-CoV Urbani [2] | Binding of serum 62 to linear peptides of protein E of SARS-CoV Urbani [2]
0.0: Binding of serum 1b to looped/cyclic peptides of protein E of SARS-CoV Urbani [2] | Binding of serum SARS-yellow to looped/cyclic peptides of protein E of SARS-CoV Urbani [2] | Binding of a rabbit serum to looped peptides [3]

IAEILIIIMRTFRIA
0.8: Binding of Control Serum Blood-Bank to Looped peptides of the protein X3 of SARS-CoV Urbani [1] | Binding of serum 1a to linear peptides of protein X3 of SARS-CoV Urbani [2] | Binding of serum London to looped/cyclic peptides of protein X3 of SARS-CoV Urbani [2]
0.5: Binding of Control serum LUMC to linear peptides of the protein X3 of SARS-CoV Urbani [1] | Binding of serum 1b to linear peptides of protein X3 of SARS-CoV Urbani [2] | Binding of serum 2 to looped/cyclic peptides of protein X3 of SARS-CoV Urbani [2]
0.0: Binding of serum 6 to linear peptides of protein X3 of SARS-CoV Urbani [2]
0.2: Binding of serum SARS-green to looped/cyclic peptides of protein X3 of SARS-CoV Urbani [2] | Rabbit serum looped peptides [3]
0.9: Binding of Control serum Blood-bank to linear peptides of the protein X3 of SARS-CoV Urbani [1] | Binding of Control serum LUMC to looped peptides of the protein X3 of SARS-CoV Urbani [1]
0.4: Binding of serum 37 to looped/cyclic peptides of protein X3 of SARS-CoV Urbani [2] | Binding of serum 62 to looped/cyclic peptides of protein X3 of SARS-CoV Urbani [2]
0.6: Binding of serum 2 to linear peptides of protein X3 of SARS-CoV Urbani [2] | Binding of serum 37 to linear peptides of protein X3 of SARS-CoV Urbani [2] | Binding of serum SARS-yellow to looped/cyclic peptides of protein X3 of SARS-CoV Urbani [2]
0.3: Binding of serum 1b to looped/cyclic peptides of protein X3 of SARS-CoV Urbani [2] | Binding of serum SARS-green to linear peptides of protein X3 of SARS-CoV Urbani [2] | Binding of serum SARS-yellow to linear peptides of protein X3 of SARS-CoV Urbani [2] | Rabbit serum linear peptides [3]
0.7: Binding of serum 1a to looped/cyclic peptides of protein X3 of SARS-CoV Urbani [2] | Binding of serum 6 to looped/cyclic peptides of protein X3 of SARS-CoV Urbani [2] | Binding of serum 62 to linear peptides of protein X3 of SARS-CoV Urbani [2] | Binding of serum London to linear peptides of protein X3 of SARS-CoV Urbani [2]

LIVNSVLLFLAFVVF
0.4: Binding of serum 1b to looped/cyclic peptides of protein E of SARS-CoV Urbani [2] | Binding of serum 2 to linear peptides of protein E of SARS-CoV Urbani [2] | Binding of serum 6 to looped/cyclic peptides of protein E of SARS-CoV Urbani [2] | Binding of serum London to linear peptides of protein E of SARS-CoV Urbani [2] | Binding of serum SARS-green to linear peptides of protein E of SARS-CoV Urbani [2]
0.6: Binding of serum 1b to linear peptides of protein E of SARS-CoV Urbani [2] | Binding of serum 37 to linear peptides of protein E of SARS-CoV Urbani [2] | Binding of serum 62 to linear peptides of protein E of SARS-CoV Urbani [2] | Binding of serum 62 to looped/cyclic peptides of protein E of SARS-CoV Urbani [2]
0.7: Binding of serum 6 to linear peptides of protein E of SARS-CoV Urbani [2]
0.2: Binding of serum SARS-green to looped/cyclic peptides of protein E of SARS-CoV Urbani [2]
0.3: Binding of Control serum LUMC to linear peptides [1] | Binding of serum London to looped/cyclic peptides of protein E of SARS-CoV Urbani [2] | Binding of serum SARS-yellow to linear peptides of protein E of SARS-CoV Urbani [2] | Binding of a rabbit serum to looped peptides [3]
0.8: Binding of Control Serum Blood-Bank to Looped peptides [1] | Binding of Control serum LUMC to looped peptides [1] | Binding of serum 1a to linear peptides of protein E of SARS-CoV Urbani [2]
0.5: Binding of Control serum Blood-bank to linear peptides [1] | Binding of serum 1a to looped/cyclic peptides of protein E of SARS-CoV Urbani [2] | Binding of serum 2 to looped/cyclic peptides of protein E of SARS-CoV Urbani [2] | Binding of serum 37 to looped/cyclic peptides of protein E of SARS-CoV Urbani [2] | Binding of serum SARS-yellow to looped/cyclic peptides of protein E of SARS-CoV Urbani [2] | Binding of a rabbit serum to linear peptides [3]

LLFLAFVVFLLVTLA
0.2: Binding of serum SARS-yellow to linear peptides of protein E of SARS-CoV Urbani [2]
0.6: Binding of Control serum Blood-bank to linear peptides [1] | Binding of serum 1b to linear peptides of protein E of SARS-CoV Urbani [2] | Binding of serum 2 to looped/cyclic peptides of protein E of SARS-CoV Urbani [2] | Binding of a rabbit serum to linear peptides [3]
0.7: Binding of Control serum LUMC to looped peptides [1] | Binding of serum 1a to looped/cyclic peptides of protein E of SARS-CoV Urbani [2] | Binding of serum 6 to linear peptides of protein E of SARS-CoV Urbani [2] | Binding of serum 37 to linear peptides of protein E of SARS-CoV Urbani [2] | Binding of serum 37 to looped/cyclic peptides of protein E of SARS-CoV Urbani [2] | Binding of serum 62 to linear peptides of protein E of SARS-CoV Urbani [2] | Binding of serum 62 to looped/cyclic peptides of protein E of SARS-CoV Urbani [2] | Binding of serum SARS-yellow to looped/cyclic peptides of protein E of SARS-CoV Urbani [2]
0.4: Binding of Control serum LUMC to linear peptides [1] | Binding of serum 1b to looped/cyclic peptides of protein E of SARS-CoV Urbani [2] | Binding of serum 6 to looped/cyclic peptides of protein E of SARS-CoV Urbani [2] | Binding of serum London to looped/cyclic peptides of protein E of SARS-CoV Urbani [2] | Binding of serum SARS-green to linear peptides of protein E of SARS-CoV Urbani [2] | Binding of serum SARS-green to looped/cyclic peptides of protein E of SARS-CoV Urbani [2] | Binding of a rabbit serum to looped peptides [3]
0.8: Binding of serum 1a to linear peptides of protein E of SARS-CoV Urbani [2]
0.5: Binding of Control Serum Blood-Bank to Looped peptides [1] | Binding of serum 2 to linear peptides of protein E of SARS-CoV Urbani [2] | Binding of serum London to linear peptides of protein E of SARS-CoV Urbani [2]

MYSFVSEETGTLIVN
0.7: Binding of Control serum LUMC to linear peptides [1] | Binding of serum 1a to looped/cyclic peptides of protein E of SARS-CoV Urbani [2] | Binding of serum 37 to looped/cyclic peptides of protein E of SARS-CoV Urbani [2]
0.1: Binding of serum SARS-yellow to linear peptides of protein E of SARS-CoV Urbani [2]
0.6: Binding of Control Serum Blood-Bank to Looped peptides [1] | Binding of serum 2 to linear peptides of protein E of SARS-CoV Urbani [2] | Binding of serum 2 to looped/cyclic peptides of protein E of SARS-CoV Urbani [2] | Binding of serum 6 to linear peptides of protein E of SARS-CoV Urbani [2] | Binding of serum London to linear peptides of protein E of SARS-CoV Urbani [2] | Binding of serum SARS-green to linear peptides of protein E of SARS-CoV Urbani [2]
0.2: Binding of a rabbit serum to looped peptides [3]
0.4: Binding of serum London to looped/cyclic peptides of protein E of SARS-CoV Urbani [2] | Binding of serum SARS-green to looped/cyclic peptides of protein E of SARS-CoV Urbani [2]
0.5: Binding of serum 1b to looped/cyclic peptides of protein E of SARS-CoV Urbani [2] | Binding of serum 6 to looped/cyclic peptides of protein E of SARS-CoV Urbani [2] | Binding of a rabbit serum to linear peptides [3]
0.8: Binding of Control serum Blood-bank to linear peptides [1] | Binding of Control serum LUMC to looped peptides [1] | Binding of serum 1a to linear peptides of protein E of SARS-CoV Urbani [2] | Binding of serum 1b to linear peptides of protein E of SARS-CoV Urbani [2] | Binding of serum 37 to linear peptides of protein E of SARS-CoV Urbani [2] | Binding of serum 62 to linear peptides of protein E of SARS-CoV Urbani [2] | Binding of serum 62 to looped/cyclic peptides of protein E of SARS-CoV Urbani [2] | Binding of serum SARS-yellow to looped/cyclic peptides of protein E of SARS-CoV Urbani [2]
